Experimental data: patent publication US7635572B2, “Methods for conducting assays for enzyme activity on protein microarrays” (Life Technologies Corporation, priority 2004, dated 2009)
Like-named read-outs stand apart in the source and are kept apart here.

What was measured:
Assay in all cases: Further analysis of a plurality of inhibitors and a plurality of kinases on microarray (Example IX, Table 5);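 also: inhibition of each kinase by the inhibitors is given as a qualitative level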;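 as to Inhibition level, TBK1: level 0 no or unclear inhibition to Level 2 substantial inhibition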
Format in all cases: biochemical
[1] = target: plurality of kinases (Table 5) (Homo sapiens, UniProt P68400)
[2] = target: T1, plurality of kinases (Table 5) (Homo sapiens, UniProt P29323); conditions: plate E5
T1 sequence (P29323 19-1055): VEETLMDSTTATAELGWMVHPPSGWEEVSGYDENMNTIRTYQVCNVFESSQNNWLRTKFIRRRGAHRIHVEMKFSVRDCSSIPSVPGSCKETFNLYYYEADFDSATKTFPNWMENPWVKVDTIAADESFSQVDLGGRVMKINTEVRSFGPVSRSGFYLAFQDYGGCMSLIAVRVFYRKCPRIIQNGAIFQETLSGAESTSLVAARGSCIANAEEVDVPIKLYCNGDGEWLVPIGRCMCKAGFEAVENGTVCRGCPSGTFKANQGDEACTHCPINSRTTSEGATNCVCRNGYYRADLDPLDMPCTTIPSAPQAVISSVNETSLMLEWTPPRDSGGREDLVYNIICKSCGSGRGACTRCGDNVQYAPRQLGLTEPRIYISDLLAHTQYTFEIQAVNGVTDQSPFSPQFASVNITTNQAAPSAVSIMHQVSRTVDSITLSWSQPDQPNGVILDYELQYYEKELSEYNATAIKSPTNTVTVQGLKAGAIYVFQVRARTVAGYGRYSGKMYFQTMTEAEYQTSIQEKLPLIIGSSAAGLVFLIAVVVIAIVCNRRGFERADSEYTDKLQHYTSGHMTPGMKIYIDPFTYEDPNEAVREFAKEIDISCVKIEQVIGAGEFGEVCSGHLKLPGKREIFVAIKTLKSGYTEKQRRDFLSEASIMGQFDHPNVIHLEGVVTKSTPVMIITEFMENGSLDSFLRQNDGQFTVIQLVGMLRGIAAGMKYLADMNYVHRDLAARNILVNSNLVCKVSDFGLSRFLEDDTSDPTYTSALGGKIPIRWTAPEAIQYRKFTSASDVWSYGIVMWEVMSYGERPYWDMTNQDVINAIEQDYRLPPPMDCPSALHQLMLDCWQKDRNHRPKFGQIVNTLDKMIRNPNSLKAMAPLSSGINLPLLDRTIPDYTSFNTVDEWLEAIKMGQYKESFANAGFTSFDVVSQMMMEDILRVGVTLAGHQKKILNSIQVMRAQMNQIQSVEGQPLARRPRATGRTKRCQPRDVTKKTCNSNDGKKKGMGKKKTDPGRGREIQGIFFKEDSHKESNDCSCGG

[3] = target: T2, plurality of kinases (Table 5) (Homo sapiens, UniProt Q9UHD2); conditions: plate G1; inhibitor 100 uM
T2 sequence (Q9UHD2 1-729): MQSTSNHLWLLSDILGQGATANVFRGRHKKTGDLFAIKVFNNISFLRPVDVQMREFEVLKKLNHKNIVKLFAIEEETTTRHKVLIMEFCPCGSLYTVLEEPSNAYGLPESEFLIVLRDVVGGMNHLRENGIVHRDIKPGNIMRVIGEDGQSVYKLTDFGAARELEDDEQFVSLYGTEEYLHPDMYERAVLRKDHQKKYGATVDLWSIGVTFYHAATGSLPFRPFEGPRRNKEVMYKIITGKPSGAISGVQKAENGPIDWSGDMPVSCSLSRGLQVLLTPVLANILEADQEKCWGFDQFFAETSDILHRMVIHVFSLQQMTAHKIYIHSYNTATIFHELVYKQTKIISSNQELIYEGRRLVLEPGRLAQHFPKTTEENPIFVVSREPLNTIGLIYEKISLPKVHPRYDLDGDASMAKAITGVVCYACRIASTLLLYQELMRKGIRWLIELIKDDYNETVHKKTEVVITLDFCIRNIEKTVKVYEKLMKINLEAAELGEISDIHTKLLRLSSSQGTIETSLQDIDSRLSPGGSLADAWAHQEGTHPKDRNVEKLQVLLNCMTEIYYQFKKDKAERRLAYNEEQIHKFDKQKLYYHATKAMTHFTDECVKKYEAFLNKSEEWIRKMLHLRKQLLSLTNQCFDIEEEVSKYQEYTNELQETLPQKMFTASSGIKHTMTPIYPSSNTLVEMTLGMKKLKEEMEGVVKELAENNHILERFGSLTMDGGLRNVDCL

[4] = target: plurality of kinases (Table 5) (Homo sapiens, UniProt P16591); conditions: plate H5; inhibitor 100 uM
[5] = target: T3, plurality of kinases (Table 5) (Homo sapiens, UniProt Q12866); conditions: plate B11; inhibitor 100 uM
T3 sequence (Q12866 21-999): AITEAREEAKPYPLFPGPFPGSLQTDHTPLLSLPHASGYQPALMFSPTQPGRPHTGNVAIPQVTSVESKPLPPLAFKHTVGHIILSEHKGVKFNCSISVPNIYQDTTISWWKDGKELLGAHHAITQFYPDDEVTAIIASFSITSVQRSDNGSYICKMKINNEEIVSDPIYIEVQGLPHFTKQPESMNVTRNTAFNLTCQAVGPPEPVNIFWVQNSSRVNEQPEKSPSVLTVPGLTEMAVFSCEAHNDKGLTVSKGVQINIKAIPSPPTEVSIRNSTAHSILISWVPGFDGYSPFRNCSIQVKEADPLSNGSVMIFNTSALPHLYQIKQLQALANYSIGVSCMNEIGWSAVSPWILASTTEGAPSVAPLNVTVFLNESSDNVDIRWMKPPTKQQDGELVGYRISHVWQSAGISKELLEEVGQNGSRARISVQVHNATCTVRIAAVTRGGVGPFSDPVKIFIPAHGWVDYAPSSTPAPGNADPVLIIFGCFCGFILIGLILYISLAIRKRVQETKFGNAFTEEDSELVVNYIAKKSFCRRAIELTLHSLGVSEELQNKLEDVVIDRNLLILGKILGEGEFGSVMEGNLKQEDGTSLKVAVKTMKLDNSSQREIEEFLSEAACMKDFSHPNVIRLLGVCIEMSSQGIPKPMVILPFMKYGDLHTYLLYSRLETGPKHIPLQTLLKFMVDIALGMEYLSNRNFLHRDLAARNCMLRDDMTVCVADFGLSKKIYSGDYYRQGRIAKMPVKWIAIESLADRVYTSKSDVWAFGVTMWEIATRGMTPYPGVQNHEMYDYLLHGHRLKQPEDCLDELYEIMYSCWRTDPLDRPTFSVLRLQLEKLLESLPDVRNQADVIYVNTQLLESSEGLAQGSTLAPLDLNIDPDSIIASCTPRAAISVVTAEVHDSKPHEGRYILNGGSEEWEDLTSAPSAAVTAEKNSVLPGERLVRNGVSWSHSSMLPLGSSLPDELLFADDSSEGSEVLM

Chain of plurality of kinases (Table 5) (Homo sapiens, UniProt P68400) (P68400 whole entry): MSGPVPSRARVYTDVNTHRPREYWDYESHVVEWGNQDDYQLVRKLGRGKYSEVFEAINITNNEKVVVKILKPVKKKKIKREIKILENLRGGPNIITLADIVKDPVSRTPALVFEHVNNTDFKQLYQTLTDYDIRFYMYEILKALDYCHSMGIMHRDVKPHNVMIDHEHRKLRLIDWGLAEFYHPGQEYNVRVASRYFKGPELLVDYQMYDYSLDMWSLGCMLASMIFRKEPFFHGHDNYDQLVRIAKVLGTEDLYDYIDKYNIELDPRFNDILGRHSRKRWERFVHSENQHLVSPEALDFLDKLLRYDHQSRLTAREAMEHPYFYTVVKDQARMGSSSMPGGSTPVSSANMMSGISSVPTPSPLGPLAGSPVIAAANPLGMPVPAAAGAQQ
Chain of plurality of kinases (Table 5) (Homo sapiens, UniProt P16591) (P16591 whole entry): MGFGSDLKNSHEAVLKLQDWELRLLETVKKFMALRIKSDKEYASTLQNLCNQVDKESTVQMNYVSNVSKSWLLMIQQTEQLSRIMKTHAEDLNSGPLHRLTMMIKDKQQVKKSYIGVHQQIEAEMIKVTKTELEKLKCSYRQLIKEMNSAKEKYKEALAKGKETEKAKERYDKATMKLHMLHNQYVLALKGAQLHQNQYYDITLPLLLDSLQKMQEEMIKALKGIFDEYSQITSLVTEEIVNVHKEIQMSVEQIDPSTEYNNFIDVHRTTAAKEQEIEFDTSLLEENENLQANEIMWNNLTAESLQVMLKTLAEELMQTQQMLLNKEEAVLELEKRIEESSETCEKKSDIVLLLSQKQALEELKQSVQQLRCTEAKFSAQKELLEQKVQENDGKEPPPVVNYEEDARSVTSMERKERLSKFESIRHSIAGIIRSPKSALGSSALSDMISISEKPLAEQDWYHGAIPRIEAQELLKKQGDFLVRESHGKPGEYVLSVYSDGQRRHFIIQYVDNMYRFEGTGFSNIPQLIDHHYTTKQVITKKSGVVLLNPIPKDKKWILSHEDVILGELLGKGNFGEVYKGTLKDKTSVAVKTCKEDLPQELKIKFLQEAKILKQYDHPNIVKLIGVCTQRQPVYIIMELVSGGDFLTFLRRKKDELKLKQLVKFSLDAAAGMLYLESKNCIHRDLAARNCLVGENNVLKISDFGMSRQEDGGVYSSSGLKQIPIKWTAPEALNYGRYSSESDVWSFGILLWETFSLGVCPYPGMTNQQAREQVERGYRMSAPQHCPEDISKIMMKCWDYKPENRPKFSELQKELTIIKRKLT

Row | Structure (SMILES) | Inhibition level, CSNK2A1 ([1]; plate D9, inhibitor 100 uM) | Inhibition level, EPHB2 ([2]; inhibitor 100 uM) | Inhibition level, TBK1 [3] | Inhibition level, FER [4] | Inhibition level, MERTK [5] | Inhibition level, CSNK2A1 ([1]; plate D9, Ro-31-8220, conc. not given) | Inhibition level, EPHB2 ([2]; Ro-31-8220 90 uM) | Inhibition level, CSNK2A1 [1] | Inhibition level, CSNK2A1 ([1]; plate D9, Genistein, conc. not given) | Inhibition level, EPHB2 ([2]; Genistein <3.7 mM)
1 | O=S(=O)(NCCNC/C=C/c1ccc(Br)cc1)c1cccc2cnccc12 [H-89] | 0 | 2 | 2 | 2 | 2 |  |  |  |  | 
2 | Cn1cc(C2=C(c3cn(CCCSC(=N)N)c4ccccc34)C(=O)NC2=O)c2ccccc21 [Ro-31-8220] | 2 | 2 | 2 | 2 | 2 | 0 | 0 |  |  | 
3 | CC(=O)c1c(O)c(C)c(O)c(Cc2c(O)c3c(c(C(=O)/C=C/c4ccccc4)c2O)OC(C)(C)C=C3)c1O [Rottlerin (Mallotoxin)] | 2 | 2 | 1 | 2 | 2 |  |  |  |  | 
4 | CC(C)(C)n1nc(-c2ccc(Cl)cc2)c2c(N)ncnc21 [PP2] | 2 | 2 | 1 | 2 | 2 |  |  |  |  | 
5 | COc1cc2ncnc(Nc3cccc(Cl)c3)c2cc1OC [AG 1478] | 2 | 2 | 2 | 1 | 2 |  |  |  |  | 
6 | N#C/C(=C/c1ccc(O)c(O)c1)C(=O)NCc1ccccc1 [AG 490] | 2 | 2 | 2 | 2 | 2 |  |  |  |  | 
7 | CN[C@@H]1C[C@H]2O[C@@](C)([C@@H]1OC)n1c3ccccc3c3c4c(c5c6ccccc6n2c5c31)C(=O)NC4 [Staurosporine] |  |  |  |  |  |  |  | 2 |  | 
8 | O=c1c(O)c(-c2ccc(O)c(O)c2)oc2cc(O)cc(O)c12 [Quercetin] |  | 2 | 0 | 1 | 1 |  |  |  |  | 
9 | O=c1c(-c2ccc(O)cc2)coc2cc(O)cc(O)c12 [Genistein] | 2 | 2 | 2 | 2 | 2 |  |  |  | 0 | 0
